The source of these data is US12162857B2, “Antiviral compounds” (priority 2022, dated 2024).

Bounds are passed on as bounds.

One may read the EC50 as the concentration that produces a half-maximal response. Read a high EC50 as weaker potency.

Experiment [1] deals with Human RSV-A (“Long” strain). Nature of the experiment: RSV-A assay: CPE in Hep-2 cells, ATPlite readout. The class given is cell-based. To be noted: human respiratory syncytial virus, 120 h, MOI 0.1, 5-day incubation. From the text:
Hep-2 cells, (originally derived from tumors grown in irradiated-cortisonised weanling rats that had been injected with epidermoid carcinoma tissue from a person's larynx, but later found to be indistinguishable from HeLa cells by PCR DNA analysis), were used for the culturing of genotype A, “Long” strain RSV. Flasks were inoculated with RSV and viral stocks were collected once cytopathic effect (CPE) was greater than 90%. Viral stocks in 25% sucrose media were snap frozen using liquid nitrogen to increase viral stability. Viral stock titers were quantified by tissue culture infectious dose 50% (TCID50) using 8,000 cells per well and 3-fold viral dilutions across a 96-well plate, cultured for 4 days. Viral stock titers were also quantified by a plaque forming unit assay, as described elsewhere.
Following extensive parameter testing, the final assay is run as follows: Hep-2 cells are seeded into the inner 60 wells of a 96-well plate at 8,000 cells per well in a volume of 50 μL using Growth Media (DMEM without phenol red, 1% L-Glut, 1% Penn/Strep, 1% nonessential amino acids, 10% heat-inactivated FBS). 2-fold serial dilutions of control and test compounds are added to the wells in duplicate in a total volume of 25 μL. Viral stock is then added to the wells at a multiplicity of infection (MOI) of 0.1 in a volume of 25 μL, bringing the total volume of each well to 100 μL. The MOI is calculated using the PFU/mL, or TCID50 if unavailable. Each 96-well plate has a control column of 6 wells with cells and virus but no compound (negative control, max CPE), a column with cells but no compound or virus (positive control, minimum CPE), and a column with no cells or virus or compound (background plate/reagent control). The control wells with cells but no virus are given an additional 25 μL of growth media containing an equal quantity of sucrose as those wells receiving the viral stock in order to keep consistent in media and volume conditions. The outer wells of the plate are filled with 125 μL of moat media (DMEM, 100 Penn/Strep) to act as a thermal and evaporative moat around the test wells. Following a 5-day incubation period, the plates are read using ATPlite (50 uL added per well), which quantifies the amount of ATP (a measure of cell health) present in each well. Assay plates are read using the Envision luminometer. […] EC50 ranges are as follows: A<0.01 μM; B 0.01-0.05 μM; C>0.05 μM.
Background: ATP-based viability assays read luminescence as a measure of living cells.

A further experiment has as its system HMPV A2 TN/94-49. Nature of the experiment: HMPV antiviral assay: LLC-MK2 cells, ATP-Lite readout. To be noted: LLC-MK2, 168 h, MOI 0.005, 7 days incubation. Format: cell-based. In a few lines:
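LLC-MK2 cells (5,000/well) were infected in suspension with HMPV A2 TN/94-49 at MOI 0.005 in serum-free OptiMEM with 2 μg/mL final TPCK-trypsin, then incubated for 7 days at 37 °C. Compounds were tested in duplicate from 2 μM in 10-point 2.5-fold dilutions. ATP-Lite luminescence, normalised to virus-only and cells-only controls as % cell health, gave EC50 by four-parameter fit.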

In the case of `COc1cc(C(=O)NC[C@@](O)(c2ccccc2)c2cc(C(C)(C)O)c(F)c(-c3ccc4c(c3Cl)OC(F)(F)O4)n2)cc2cn(C3CC3)nc12` [Example 74], the EC50 in experiment [1] was under 10 nM; in the experiment with HMPV A2 TN/94-49, under 1000 nM.
In the same order, the values of `COc1cc(C(=O)NC[C@@](O)(c2ccccc2)c2cc(C(C)(C)O)c(F)c(-c3cc(F)c(F)cc3F)n2)cc2cn(C3CC3)nc12` [Example 86] are under 10 nM and over 1000 nM.
Turning to `COc1cc(C(=O)NC[C@](O)(c2cc(C3(C(N)=O)CC3)c(F)c(-c3ccc(F)c(Cl)c3F)n2)C2CC2)cc2cc(Cl)c(C)nc12` (single isomer, unassigned) [Example 23], the EC50 is 10 to 50 nM in experiment [1] and over 1000 nM in the experiment with HMPV A2 TN/94-49.
Consider `CC(C)(O)c1cc([C@@](O)(CNC(=O)c2cc(Cl)c3nn(C4CC4)cc3c2)C2CC2)nc(-c2ccc(F)cc2)c1F` [Example 6], for which the EC50 was under 10 nM in experiment [1] and under 1000 nM in the experiment on HMPV A2 TN/94-49.
Turning to `COc1cc(C(=O)NC[C@@](O)(c2ccccc2)c2nc(-c3cc(Cl)c(F)cc3F)c(F)c(C(C)(C)O)c2F)cc2cn(C3CC3)nc12` [Example 127], the EC50 was under 10 nM in experiment [1] and under 1000 nM in the experiment on HMPV A2 TN/94-49.
For `NC(=O)C1(c2cc([C@@](O)(CNC(=O)c3cc(OC4CC4)c4nn(C(F)F)cc4c3)C3CC3)nc(-c3cc(Cl)c(F)cc3F)c2F)CC1` (single isomer, unassigned) [Example 18], in that order: 10 to 50 nM and over 1000 nM.
Take `COc1cc(C(=O)NC[C@](O)(c2cc(C(C)(C)F)c(F)c(-c3cc(Cl)c(F)cc3F)n2)C2CC2)cc2cn(C3CC3)nc12` [Example 177]: the EC50 in experiment [1] is 10 to 50 nM; with HMPV A2 TN/94-49, over 1000 nM.
In the same order, the values of `CC(C)(O)c1cc([C@@](O)(CNC(=O)c2cc(OC3CC3)c3nn(C4(F)CC4)cc3c2)C2CC2)nc(-c2ccc(F)cc2)c1F` [Example 5] are under 10 nM and under 1000 nM.
As for `COc1cc(C(=O)NC[C@@](O)(c2ccccc2)c2cc(C(C)(C)O)c(Cl)c(-c3ccc4c(c3Cl)OC(F)(F)O4)n2)cc2cn(C3CC3)nc12` [Example 136], the EC50 in experiment [1] is under 10 nM; with HMPV A2 TN/94-49, under 1000 nM.
As to `COc1cc(C(=O)NC[C@@](O)(c2ccccc2)c2cc(C(C)(C)O)c(F)c(-c3ccc(F)c(Cl)c3F)n2)cc2cn(C3CC3)nc12` [Example 123], the EC50 in experiment [1] is under 10 nM; with HMPV A2 TN/94-49 it was under 1000 nM.
As for `COc1cc(C(=O)NC[C@@](O)(c2ccccc2)c2cc(C(C)(C)O)c(F)c(-c3cc(Cl)c(F)cc3F)n2)cc2cn(C(F)F)nc12` [Example 62], the values for the EC50 (in experiment [1]; with HMPV A2 TN/94-49) were under 10 nM and under 1000 nM, respectively.
Turning to `COc1cc(C(=O)NC[C@](O)(c2cc(C3(O)CC3)c(F)c(-c3ccc(F)cc3)n2)C2CC2)cc2cn(C3CC3)nc12` (single isomer, unassigned) [Example 50], the EC50 was under 10 nM in experiment [1] and over 1000 nM in the experiment with HMPV A2 TN/94-49.
In the same order, the values of `COc1cc(C(=O)NC[C@](O)(c2cc(C(C)(C)O)c(F)c(-c3cc(Cl)c(F)cc3F)n2)C2CC2)cc2cc(Cl)c(C)nc12` [Example 57] are under 10 nM and under 1000 nM.
On to `COc1cc(C(=O)NC[C@](O)(c2cc(C3(O)CNC3)c(F)c(-c3cc(Cl)c(F)cc3F)n2)C2CC2)cc2cn(C3CC3)nc12` [Example 170], for which the EC50 in experiment [1] is over 50 nM; in the experiment with HMPV A2 TN/94-49 it was over 1000 nM.
In the case of `COc1cc(C(=O)NC[C@](O)(c2cc(C(C)(C)O)c(F)c(-c3ccc(F)cc3)n2)C2CC2)cc2cn(C3CC3)nc12` [Example 1], the EC50 in experiment [1] is under 10 nM; with HMPV A2 TN/94-49 it was under 1000 nM.
For the compound `COc1cc(C(=O)NC[C@](O)(c2cc(C3(C(N)=O)CC3)cc(-c3cc(Cl)c(F)cc3F)n2)C2CC2)cc2cn(C(F)F)nc12` (single isomer, unassigned) [Example 25], the EC50 was 10 to 50 nM in experiment [1] and over 1000 nM in the experiment on HMPV A2 TN/94-49.
In the case of `COc1cc(C(=O)NC[C@](O)(c2cc(C3(C(N)=O)CC3)cc(-c3ccc(F)c(Cl)c3F)n2)C2CC2)cc2cn(C3CC3)nc12` (single isomer, unassigned) [Example 26], the EC50 in experiment [1] is under 10 nM; with HMPV A2 TN/94-49, over 1000 nM.
Take `COc1cc(C(=O)NC[C@](O)(c2cc(N3CC[C@H](O)C3)cc(-c3cc(Cl)c(F)cc3F)n2)C2CC2)cc2cn(C3CC3)nc12` [Example 199]: the results for the EC50 (in experiment [1]; with HMPV A2 TN/94-49) were over 50 nM and over 1000 nM, respectively.
In the same order, the values of `COc1cc(C(=O)NC[C@](O)(c2cc(C3(C(N)=O)CC3)c(F)c(-c3ccc(F)c(Cl)c3F)n2)C2CC2)cc2cn(C3(F)CC3)nc12` (single isomer, unassigned) [Example 22] are under 10 nM and over 1000 nM.
As for `Cc1nc2c(OC3CC3)cc(C(=O)NC[C@](O)(c3cc(C(O)(C(F)(F)F)C(F)(F)F)c(F)c(-c4ccc(F)cc4)n3)C3CC3)cc2cc1Cl` (single isomer, unassigned) [Example 48], the results for the EC50 (in experiment [1]; in the experiment with HMPV A2 TN/94-49) were over 50 nM and over 1000 nM, respectively.
On to `COc1cc(C(=O)NC[C@](O)(c2cc(C3(C#N)CC3)c(F)c(-c3cc(Cl)c(F)cc3F)n2)C2CC2)cc2cn(C(F)F)nc12` [Example 10], for which the EC50 in experiment [1] is 10 to 50 nM; in the experiment on HMPV A2 TN/94-49, over 1000 nM.
In the same order, the values of `COc1cc(C(=O)NC[C@@](O)(c2ccccc2)c2cc(C(=O)NC3(C)CC3)c(F)c(-c3cc(Cl)c(F)cc3F)n2)cc2cn(C3CC3)nc12` [Example 195] are over 50 nM and over 1000 nM.
Take `COc1cc(C(=O)NC[C@@](O)(c2ccccc2)c2cc(C(C)(C)O)c(Cl)c(-c3cc(Cl)c(F)cc3F)n2)cc2cn(C3CC3)nc12` (single isomer, unassigned) [Example 132]: the EC50 in experiment [1] was under 10 nM; in the experiment on HMPV A2 TN/94-49, under 1000 nM.
For `COc1cc(C(=O)NC[C@@](O)(c2ccccc2)c2cc(C(N)=O)c(F)c(-c3cc(Cl)c(F)cc3F)n2)cc2cn(C3CC3)nc12` [Example 189], in that order: 10 to 50 nM and over 1000 nM.
In the case of `COc1cc(C(=O)NC[C@](O)(c2cc(C(O)(C(F)(F)F)C(F)(F)F)c(F)c(-c3ccc(F)cc3)n2)C2CC2)cc2cn(C3CC3)nc12` (single isomer, unassigned) [Example 47], the EC50 was 10 to 50 nM in experiment [1] and over 1000 nM with HMPV A2 TN/94-49.
In the same order, the values of `CC(C)(O)c1cc([C@@](O)(CNC(=O)c2cc(F)c3nn(C(F)F)cc3c2)C2CC2)nc(-c2ccc(F)cc2)c1F` (single isomer, unassigned) [Example 7] are over 50 nM and over 1000 nM.
For `COc1cc(C(=O)NC[C@](O)(c2cc(C(C)(C)O)c(F)c(-c3ccc(F)cc3)n2)C2CC2)cc2cn(C3(F)CC3)nc12` [Example 4], the EC50 is under 10 nM in experiment [1] and under 1000 nM with HMPV A2 TN/94-49.
With `COc1cc(C(=O)NC[C@@](O)(c2ccccc2)c2cc(C(C)(C)O)c(F)c(-c3cc(Cl)c(F)cc3F)n2)cc2cc(Cl)c(C)nc12` [Example 65], the EC50 in experiment [1] is 10 to 50 nM; with HMPV A2 TN/94-49, under 1000 nM.
In the case of `COc1cc(C(=O)NC[C@@](O)(c2ccccc2)c2cc(C(C)(C)O)c(F)c(-c3cc(Cl)c(F)cc3F)n2)cc2cc(C3CC3)nn12` [Example 64], the EC50 was under 10 nM in experiment [1] and under 1000 nM in the experiment with HMPV A2 TN/94-49.
For `CC(C)(O)c1cc([C@@](O)(CNC(=O)c2ccc3nn(C4CC4)cc3c2)C2CC2)nc(-c2ccc(F)cc2)c1F` [Example 3], the concentration giving a half-maximal response (EC50) in experiment [1] is 10 to 50 nM; in the experiment on HMPV A2 TN/94-49 it was over 1000 nM.
As for `COc1cc(C(=O)NC[C@](O)(c2cc(C3(C(N)=O)CC3)c(F)c(-c3ccc(F)c(Cl)c3F)n2)C2CC2)cc2cn(C3CC3)nc12` (single isomer, unassigned) [Example 20], the values for the EC50 (in experiment [1]; with HMPV A2 TN/94-49) were 10 to 50 nM and over 1000 nM, respectively.
For `COc1cc(C(=O)NC[C@](O)(c2cc(C3(C(N)=O)CC3)c(F)c(-c3cc(Cl)c(F)cc3F)n2)C2CC2)cc2cn(C(F)F)nc12` (single isomer, unassigned) [Example 9], in that order: 10 to 50 nM and over 1000 nM.
`Cc1nc2c(OC(F)F)cc(C(=O)NC[C@](O)(c3cc(C4(O)CC4)c(F)c(-c4ccc(F)cc4)n3)C3CC3)cc2cc1Br` (single isomer, unassigned) [Example 51]: the values for the EC50 (in experiment [1]; in the experiment on HMPV A2 TN/94-49) were 10 to 50 nM and over 1000 nM, respectively.
For `[2H]C([2H])([2H])C(O)(c1cc([C@@](O)(CNC(=O)c2cc(OC)c3nn(C(F)F)cc3c2)c2ccccc2)nc(-c2cc(Cl)c(F)cc2F)c1F)C([2H])([2H])[2H]` [Example 185], in that order: under 10 nM and under 1000 nM.
